pEC50: −log10 of the molar value.

The assay deals with FXR (Homo sapiens (Human), UniProt Q96RI1). Description: FXR EC50 (FXR agonist activity reported with each example). The class given is cell-based.
Chain of FXR (Q96RI1 262-486): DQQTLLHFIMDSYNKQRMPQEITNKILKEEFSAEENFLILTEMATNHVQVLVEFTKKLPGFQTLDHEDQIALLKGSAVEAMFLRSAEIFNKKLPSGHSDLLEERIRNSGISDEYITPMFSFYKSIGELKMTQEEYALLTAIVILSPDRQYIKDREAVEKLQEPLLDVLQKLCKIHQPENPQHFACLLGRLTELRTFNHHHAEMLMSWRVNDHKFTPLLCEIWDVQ
The term pEC50 denotes −log10 of the EC50, conventionally taken in molar units. Read a low pEC50 as a high EC50. Consider `NC(=O)c1cc(C(F)(F)F)cc2nc(C34CCC(OCc5c(-c6c(Cl)cncc6Cl)noc5C5CC5)(CC3)CC4)sc12` [Example 435, 2-(4-((5-cyclopropyl-3-(3,5-dichloropyridin-4-yl)isoxazol-4-yl)methoxy)bicyclo[2.2.2]octan-1-yl)-5-(trifluoromethyl)benzo[d]thiazole-7-carboxamide], for which the pEC50 is 6.34.

Compound `O=C(O)c1cc(-c2noc(C34CCC(/C=C/c5c(-c6c(Cl)cncc6Cl)noc5C5CC5)(CC3)CC4)n2)cc(C(F)(F)F)c1` [Example 436, (E)-3-(5-(4-(2-(5-cyclopropyl-3-(3,5-dichloropyridin-4-yl)isoxazol-4-yl)vinyl)bicyclo[2.2.2]octan-1-yl)-1,2,4-oxadiazol-3-yl)-5-(trifluoromethyl)benzoic acid] gave a pEC50 of 7.74.

`COc1ccc(-c2noc(C34CCC(/C=C/c5c(-c6c(Cl)cncc6Cl)noc5C5CC5)(CC3)CC4)n2)cc1C(=O)O` [Example 437, (E)-5-(5-(4-(2-(5-cyclopropyl-3-(3,5-dichloropyridin-4-yl)isoxazol-4-yl)vinyl)bicyclo[2.2.2]octan-1-yl)-1,2,4-oxadiazol-3-yl)-2-methoxybenzoic acid] had a pEC50 of 7.64.

As to `COc1ccc(-c2noc(C34CCC(/C=C/c5c(-c6c(Cl)cncc6Cl)noc5C5CC5)(CC3)CC4)n2)cc1C(=O)NS(C)(=O)=O` [Example 438, (E)-5-(5-(4-(2-(5-cyclopropyl-3-(3,5-dichloropyridin-4-yl)isoxazol-4-yl)vinyl)bicyclo[2.2.2]octan-1-yl)-1,2,4-oxadiazol-3-yl)-2-methoxy-N-(methylsulfonyl)benzamide], the pEC50 is 7.48.

As to `COc1ccc(-c2noc(C34CCC(/C=C/c5c(-c6c(Cl)cncc6Cl)noc5C5CC5)(CC3)CC4)n2)cc1C(=O)NS(=O)(=O)C1CC1` [Example 439, (E)-5-(5-(4-(2-(5-cyclopropyl-3-(3,5-dichloropyridin-4-yl)isoxazol-4-yl)vinyl)bicyclo[2.2.2]octan-1-yl)-1,2,4-oxadiazol-3-yl)-N-(cyclopropylsulfonyl)-2-methoxybenzamide], the pEC50 is 6.55.

For `CS(=O)(=O)NC(=O)c1cc(-c2noc(C34CCC(/C=C/c5c(-c6c(Cl)cncc6Cl)noc5C5CC5)(CC3)CC4)n2)cc(C(F)(F)F)c1` [Example 440, (E)-3-(5-(4-(2-(5-cyclopropyl-3-(3,5-dichloropyridin-4-yl)isoxazol-4-yl)vinyl)bicyclo[2.2.2]octan-1-yl)-1,2,4-oxadiazol-3-yl)-N-(methylsulfonyl)-5-(trifluoromethyl)benzamide], the pEC50 is 6.40.

`NC(=O)c1cc(-c2noc(C34CCC(/C=C/c5c(-c6c(Cl)cncc6Cl)noc5C5CC5)(CC3)CC4)n2)cc(C(F)(F)F)c1` [Example 441, (E)-3-(5-(4-(2-(5-cyclopropyl-3-(3,5-dichloropyridin-4-yl)isoxazol-4-yl)vinyl)bicyclo[2.2.2]octan-1-yl)-1,2,4-oxadiazol-3-yl)-5-(trifluoromethyl)benzamide] gave a pEC50 of 6.82.

The compound `O=C(O)c1cc(F)cc(-c2noc(C34CCC(/C=C/c5c(-c6c(Cl)cncc6Cl)noc5C5CC5)(CC3)CC4)n2)c1` [Example 442, (E)-3-(5-(4-(2-(5-cyclopropyl-3-(3,5-dichloropyridin-4-yl)isoxazol-4-yl)vinyl)bicyclo[2.2.2]octan-1-yl)-1,2,4-oxadiazol-3-yl)-5-fluorobenzoic acid] showed a pEC50 of 7.10.

`COC(=O)c1cc(OC(F)F)cc(-c2noc(C34CCC(/C=C/c5c(-c6c(Cl)cncc6Cl)noc5C5CC5)(CC3)CC4)n2)c1` [Example 443, (E)-methyl 3-(5-(4-(2-(5-cyclopropyl-3-(3,5-dichloropyridin-4-yl)isoxazol-4-yl)vinyl)bicyclo[2.2.2]octan-1-yl)-1,2,4-oxadiazol-3-yl)-5-(difluoromethoxy)benzoate]: the pEC50 is 7.31.

Compound `O=C(O)c1cc(OCC23CCC(/C=C/c4c(-c5c(Cl)cncc5Cl)noc4C4CC4)(CC2)CC3)cc(OC(F)F)c1` [Example 444, (E)-3-((4-(2-(5-cyclopropyl-3-(3,5-dichloropyridin-4-yl)isoxazol-4-yl)vinyl)bicyclo[2.2.2]octan-1-yl)methoxy)-5-(difluoromethoxy)benzoic acid] gave a pEC50 of 7.80.

In turn, `O=C(O)c1cc(-c2noc(C34CCC(/C=C/c5c(-c6c(Cl)cncc6Cl)noc5C5CC5)(CC3)CC4)n2)ccc1OC(F)F` [Example 446, (E)-5-(5-(4-(2-(5-cyclopropyl-3-(3,5-dichloropyridin-4-yl)isoxazol-4-yl)vinyl)bicyclo[2.2.2]octan-1-yl)-1,2,4-oxadiazol-3-yl)-2-(difluoromethoxy)benzoic acid] had a pEC50 of 6.46.

Compound `Cc1cc(OCC23CCC(/C=C/c4c(-c5c(Cl)cncc5Cl)noc4C4CC4)(CC2)CC3)c2cc(C(=O)O)cc(F)c2n1` [Example 447, (E)-4-((4-(2-(5-cyclopropyl-3-(3,5-dichloropyridin-4-yl)isoxazol-4-yl)vinyl)bicyclo[2.2.2]octan-1-yl)methoxy)-8-fluoro-2-methylquinoline-6-carboxylic acid] showed a pEC50 of 5.62.

On to `COc1c(C(=O)O)cccc1-c1noc(C23CCC(/C=C/c4c(-c5c(Cl)cncc5Cl)noc4C4CC4)(CC2)CC3)n1` [Example 448, (E)-3-(5-(4-(2-(5-cyclopropyl-3-(3,5-dichloropyridin-4-yl)isoxazol-4-yl)vinyl)bicyclo[2.2.2]octan-1-yl)-1,2,4-oxadiazol-3-yl)-2-methoxybenzoic acid], for which the pEC50 is 8.00.

Regarding `COc1cc(C(=O)O)ccc1OCC12CCC(/C=C/c3c(-c4c(Cl)cncc4Cl)noc3C3CC3)(CC1)CC2` [Example 450, (E)-4-((4-(2-(5-cyclopropyl-3-(3,5-dichloropyridin-4-yl)isoxazol-4-yl)vinyl)bicyclo[2.2.2]octan-1-yl)methoxy)-3-methoxybenzoic acid], the pEC50 is 7.74.

As for `O=C(O)c1cc(OC(F)F)c2cc(OCC34CCC(/C=C/c5c(-c6c(Cl)cncc6Cl)noc5C5CC5)(CC3)CC4)ccc2n1` [Example 451, (E)-6-((4-(2-(5-cyclopropyl-3-(3,5-dichloropyridin-4-yl)isoxazol-4-yl)vinyl)bicyclo[2.2.2]octan-1-yl)methoxy)-4-(difluoromethoxy)quinoline-2-carboxylic acid], the pEC50 is 7.46.

Compound `O=C(O)c1cc(C(F)(F)F)c2cc(OCC34CCC(/C=C/c5c(-c6c(Cl)cncc6Cl)noc5C5CC5)(CC3)CC4)ccc2n1` [Example 452, (E)-6-((4-(2-(5-cyclopropyl-3-(3,5-dichloropyridin-4-yl)isoxazol-4-yl)vinyl)bicyclo[2.2.2]octan-1-yl)methoxy)-4-(trifluoromethyl)quinoline-2-carboxylic acid] had a pEC50 of 7.85.

Turning to `O=C(O)c1cccc2nc(C34CCC(OCc5c(-c6c(Cl)cccc6Cl)noc5C5CC5)(CC3)CO4)sc12` [Example 454, 2-(4-((5-cyclopropyl-3-(2,6-dichlorophenyl)isoxazol-4-yl)methoxy)-2-oxabicyclo[2.2.2]octan-1-yl)benzo[d]thiazole-7-carboxylic acid], the pEC50 is 6.17.

Compound `COc1ccc(-c2noc(C34CCC(OCc5c(-c6c(Cl)cncc6Cl)noc5C5CC5)(CC3)CO4)n2)cc1C(=O)O` [Example 455, 5-(5-(4-((5-cyclopropyl-3-(3,5-dichloropyridin-4-yl)isoxazol-4-yl)methoxy)-2-oxabicyclo[2.2.2]octan-1-yl)-1,2,4-oxadiazol-3-yl)-2-methoxybenzoic acid] gave a pEC50 of 6.54.

For `O=C(O)c1cccc2nc(C34CCC(CCc5c(-c6ccccc6OC(F)(F)F)noc5C5CC5)(CC3)CC4)sc12` [Example 456, 2-(4-(2-(5-cyclopropyl-3-(2-(trifluoromethoxy)phenyl)isoxazol-4-yl)ethyl)bicyclo[2.2.2]octan-1-yl)benzo[d]thiazole-7-carboxylic acid], the pEC50 was 7.66.

As to `O=C(O)c1ccc(C23CCC(/C=C/c4c(-c5c(Cl)cncc5Cl)noc4C4CC4)(CC2)CO3)cc1` [Example 457, (E)-4-(4-(2-(5-cyclopropyl-3-(3,5-dichloropyridin-4-yl)isoxazol-4-yl)vinyl)-2-oxabicyclo[2.2.2]octan-1-yl)benzoic acid], the pEC50 was 7.06.

`O=C(O)c1cc(F)cc(-c2noc(C34CCC(OCc5c(-c6c(Cl)cncc6Cl)noc5C5CC5)(CC3)CC4)n2)c1` [Example 458, 3-(5-(4-((5-cyclopropyl-3-(3,5-dichloropyridin-4-yl)isoxazol-4-yl)methoxy)bicyclo[2.2.2]octan-1-yl)-1,2,4-oxadiazol-3-yl)-5-fluorobenzoic acid] showed a pEC50 of 7.07.

`COc1ccc(C(=O)O)cc1-c1noc(C23CCC(OCc4c(-c5c(Cl)cncc5Cl)noc4C4CC4)(CC2)CC3)n1` [Example 459, 3-(5-(4-((5-cyclopropyl-3-(3,5-dichloropyridin-4-yl)isoxazol-4-yl)methoxy)bicyclo[2.2.2]octan-1-yl)-1,2,4-oxadiazol-3-yl)-4-methoxybenzoic acid] gave a negative logarithm of the EC50 (pEC50) of 6.20.

In the case of `O=C(O)c1ccc(F)c(-c2noc(C34CCC(OCc5c(-c6c(Cl)cncc6Cl)noc5C5CC5)(CC3)CC4)n2)c1` [Example 461, 3-(5-(4-((5-cyclopropyl-3-(3,5-dichloropyridin-4-yl)isoxazol-4-yl)methoxy)bicyclo[2.2.2]octan-1-yl)-1,2,4-oxadiazol-3-yl)-4-fluorobenzoic acid], the pEC50 is 6.72.

The compound `N#Cc1cnc2ccc(OCC34CCC(OCc5c(-c6c(Cl)cncc6Cl)noc5C5CC5)(CC3)CC4)nn12` [Example 462, 6-((4-((5-cyclopropyl-3-(3,5-dichloropyridin-4-yl)isoxazol-4-yl)methoxy)bicyclo[2.2.2]octan-1-yl)methoxy)imidazo[1,2-b]pyridazine-3-carbonitrile] had a pEC50 of 6.66.

On to `O=C(O)c1cc(F)cc2nc(OCC34CCC(OCc5c(-c6c(Cl)cncc6Cl)noc5C5CC5)(CC3)CC4)sc12` [Example 463, 2-((4-((5-cyclopropyl-3-(3,5-dichloropyridin-4-yl)isoxazol-4-yl)methoxy)bicyclo[2.2.2]octan-1-yl)methoxy)-5-fluorobenzo[d]thiazole-7-carboxylic acid], for which the pEC50 was 7.39.

For the origin of these results see patent US10730863B2, “Bridged bicyclic compounds as farnesoid X receptor modulators” (BRISTOL-MYERS SQUIBB COMPANY, priority 2017, dated 2020).
